From publication PMC10854894, “A New Benzo[6,7]oxepino[3,2-b] Pyridine Derivative Induces Apoptosis in Canine Mammary Cancer Cell Lines” (Animals : an Open Access Journal from MDPI, 2024)

Experiments:
CMGT071020 cells = test: Immunohistochemistry of vimentin and cytokeratin, Allred score; type: cell-based, canine; conditions: CMGT071020, 0-200 µM, 48 h, treatment vs control
Protocol: (§1) The cells were cultured in a T-25 cell culture flask (SPL life science, Gyeonggi-do, Republic of Korea) at a density of 2 × 10^5 cells/well and allowed to incubate for 24 h until they reached 60–70% confluence. They were subsequently treated with MPOBA at varying concentrations from 0 to 200 µM for 48 h. After treatment, cells were harvested using TrypLE and subjected to centrifugation at 1200 rpm for 5 min to obtain cell pellets. Then, the supernatant was replaced with 10% formalin, and the cell pellets were fixed overnight. The fixed cell pellets were embedded in paraffin blocks and sectioned with a thickness of 3 μm. These slide sections were then subjected to the deparaffinization and rehydration processes. For antigen retrieval, a heat-induced method was adopted, utilizing a vegetable steamer in a citrate buffer (pH = 6) at 90–100 °C for 45 min, followed by a cooling period of 30 min. After these preparatory steps, slides were mounted on cover plates within a Sequenza slide rack (Thermo Scientific, Waltham, MA, USA), void of air bubbles, and filled with Tris-buffered saline (TBS) (pH = 7.6). The immunohistochemical detection employed a Novolink™ Polymer Detection Kit (Leica Biosystems, Newcastle, UK) according to the manufacturer’s instructions. This began with the inhibition of endogenous peroxidase activity with a 150 μL peroxidase block at room temperature for 5 min, followed by washing with TBS three times for 3 min each. Subsequently, a 150 μL protein block was applied, incubated for 5 min, and washed three times with TBS for 3 min. Primary antibodies, including a vimentin (VT) mouse anti-human monoclonal antibody (Clone V9, ready-to-use kit, Leica Biosystems, Newcastle, UK) and a multi-cytokeratin (CK) mouse antibody (Clone AE1/AE3, ready-to-use kit, Leica Biosystems, Newcastle, UK), were incubated at 37 °C for 1 h. […]
(§2) A quantitative evaluation of the stained slides was performed utilizing the Allred scoring method and QuPath bioimaging software version 0.4.4 [48] to mitigate potential biases. […] The positive cells were systematically detected using the “positive cell detection” command in the analyze menu. The Allred score was calculated according to the quantity of marked cells and the intensity of the staining, as shown in Table S1. […] The scores and criteria used to quantify the labeled cells were 0, no labeling; 1, labeling in <1% of cells; 2, labeling in 1–10% of cells; 3, labeling in 11–33% of cells; 4, labeling in 34–66% of cells; and 5, labeling in 67–100% of cells. […] The staining intensity was determined visually. The sum of these criteria for each sample determined the final score.

REM134 cells = test: as above; type: cell-based, canine; conditions: REM134, 0-200 µM, 48 h, treatment vs control
Protocol: as §1, §2

Cc1ncccc1Oc1ccccc1C=O [MPOBA, 2-((2-methylpyridin-3-yl)oxy)benzaldehyde]
no statistically significant difference: cytokeratin (CK) expression, Allred score (CMGT071020 cells) | vimentin (VT) expression, Allred score (CMGT071020 cells) | cytokeratin (CK) expression, Allred score (REM134 cells) | vimentin (VT) expression, Allred score (REM134 cells)
